# Measured values: ChEMBL document CHEMBL1131004, “Optimizing the binding of fullerene inhibitors of the HIV-1 protease through predicted increases in hydrophobic desolvation” (J Med Chem, 1998)
# Biological target: Human immunodeficiency virus type 1 protease (Human immunodeficiency virus 1, UniProt Q72874)
# Assay: Binding affinity towards HIV-1 Protease
row,Structure (SMILES),Ki [nM]
1,CC(C)C1CC(O)C(C(C)C)C23c4c5c6c7c8c9c(c%10c%11c2c2c4c4c%12c5c5c6c6c8c8c%13c9c9c%10c%10c%11c%11c2c2c4c4c%12c%12c5c5c6c8c6c8c%13c9c9c%10c%10c%11c2c2c4c4c%12c5c6c5c8c9c%10c2c45)C713 (stereo not drawn),150
2,O=C(O)CCC(=O)NCCc1ccc(C2(c3ccc(CCNC(=O)CCC(=O)O)cc3)C34c5c6c7c8c9c%10c(c%11c%12c3c3c5c5c%13c6c6c7c7c9c9c%14c%10c%10c%11c%11c%12c%12c3c3c5c5c%13c%13c6c6c7c9c7c9c%14c%10c%10c%11c%11c%12c3c3c5c5c%13c6c7c6c9c%10c%11c3c56)C824)cc1,5000
3,OC(c1ccccc1)C1(c2ccccc2)C23c4c5c6c7c8c9c(c%10c%11c2c2c4c4c%12c5c5c6c6c8c8c%13c9c9c%10c%10c%11c%11c2c2c4c4c%12c%12c5c5c6c8c6c8c%13c9c9c%10c%10c%11c2c2c4c4c%12c5c6c5c8c9c%10c2c45)C731 (stereo not drawn),103
